The NIST ThermoML archive (doi:10.1021/je2004462)

Assays:
[1] = for mass density / viscosity: 101.33 kPa, Liquid; for surface tension liquid-gas: Pendant drop shape
[2] = refractive index (Na D-line) (dimensionless); conditions: 101.33 kPa, Liquid, Standard Abbe refractometry

CCn1cc[n+](C)c1.O=S(=O)([O-])C(F)(F)C(F)F
Conditions	mass density, [1] [kg/m3]	refractive index, [2]	surface tension liquid-gas, [1] [mN/m]	viscosity, [1] [mPa·s]
293.15 K	1435.84	1.441	–	117.43
303.15 K	1427.44	1.43833	43.29	72.64
313.15 K	1419.04	1.4357	42.45	48.32
323.15 K	1410.67	1.43304	42.03	33.94
333.15 K	1402.33	1.43041	41.43	25.05
343.15 K	1394.02	1.42777	–	18.86
353.15 K	1385.76	1.42514	–	14.74

CCOS(=O)(=O)[O-].CCn1cc[n+](C)c1 [1-ethyl-3-methylimidazolium ethyl sulfate]
Conditions	mass density, [1] [kg/m3]	refractive index, [2]	surface tension liquid-gas, [1] [mN/m]	viscosity, [1] [mPa·s]
293.15 K	1241.86	1.47959	–	122.07
303.15 K	1235.06	1.47694	47.34	75.1
313.15 K	1228.28	1.47429	46.67	49.84
323.15 K	1221.54	1.47158	46.17	35.34
333.15 K	1214.84	1.46893	45.53	25.93
343.15 K	1208.19	1.46625	–	19.36
353.15 K	1201.58	1.46359	–	15.12
